Measurements as given in ChEMBL document CHEMBL3044836, “Synthesis, antimicrobial and cytotoxic activities of novel 4-trifluoromethyl-(1,2,3)-thiadiazolo-5-carboxylic acid hydrazide Schiffs bases” (Med Chem Res, 2013).
Values after ≈ are worked out from the molar mass of the structure shown.

Assays:
[1] = test system: MCF7; experiment: Cytotoxicity against Homo sapiens (human) MCF7 cells assessed as cell viability at 10 uM after 48 hr by MTT assay relative to control; format: functional; conditions: MCF7, 48 h, read-out: Activity
[2] = test system: Saccharomyces cerevisiae; experiment: Antifungal activity against Saccharomyces cerevisiae MTCC 36 assessed as growth inhibition at 100 ug/ml after 48 hr by agar cup diffusion method; format: functional; conditions: MTCC 36, 48 h, read-out: DIZ
[3] = test system: Staphylococcus epidermidis; experiment: Antibacterial activity against Staphylococcus epidermidis MTCC 435 assessed as growth inhibition by broth dilution method; format: functional; conditions: read-out: MIC
[4] = test system: MDA-MB-231; experiment: Cytotoxicity against Homo sapiens (human) MDA-MB-231 cells assessed as cell viability after 48 hr by MTT assay; format: functional, cell-based; conditions: MDA-MB-231, 48 h
[5] = test system: MCF7; experiment: Cytotoxicity against Homo sapiens (human) MCF7 cells assessed as cell viability after 48 hr by MTT assay; format: functional, cell-based; conditions: MCF7, 48 h
[6] = test system: Aspergillus niger; experiment: Antifungal activity against Aspergillus niger MTCC 1344 assessed as growth inhibition at 150 ug/ml after 48 hr by agar cup diffusion method; format: functional; conditions: MTCC 1344, 48 h, read-out: DIZ
[7] = test system: Escherichia coli; experiment: Antibacterial activity against Escherichia coli MTCC 443 assessed as growth inhibition by broth dilution method; format: functional
[8] = test system: Diutina rugosa; experiment: Antifungal activity against Candida rugosa NCIM 3462 assessed as growth inhibition at 100 ug/ml after 48 hr by agar cup diffusion method; format: functional; conditions: NCIM 3462, 48 h, read-out: DIZ
[9] = test system: Diutina rugosa; experiment: Antifungal activity against Candida rugosa NCIM 3462 assessed as growth inhibition at 150 ug/ml after 48 hr by agar cup diffusion method; format: functional; conditions: NCIM 3462, 48 h, read-out: DIZ
[10] = test system: Pseudomonas aeruginosa; experiment: Antibacterial activity against Pseudomonas aeruginosa MTCC 741 assessed as growth inhibition by broth dilution method; format: functional
[11] = test system: Saccharomyces cerevisiae; experiment: Antifungal activity against Saccharomyces cerevisiae MTCC 36 assessed as growth inhibition at 150 ug/ml after 48 hr by agar cup diffusion method; format: functional; conditions: MTCC 36, 48 h, read-out: DIZ
[12] = test system: Candida albicans; experiment: Antifungal activity against Candida albicans MTCC 227 assessed as growth inhibition at 100 ug/ml after 48 hr by agar cup diffusion method; format: functional; conditions: MTCC 227, 48 h, read-out: DIZ
[13] = test system: MDA-MB-231; experiment: Cytotoxicity against Homo sapiens (human) MDA-MB-231 cells assessed as cell viability at 10 uM after 48 hr by MTT assay relative to control; format: functional; conditions: MDA-MB-231, 48 h, read-out: Activity
[14] = test system: Aspergillus niger; experiment: Antifungal activity against Aspergillus niger MTCC 1344 assessed as growth inhibition at 100 ug/ml after 48 hr by agar cup diffusion method; format: functional; conditions: MTCC 1344, 48 h, read-out: DIZ
[15] = test system: Candida albicans; experiment: Antifungal activity against Candida albicans MTCC 227 assessed as growth inhibition at 150 ug/ml after 48 hr by agar cup diffusion method; format: functional; conditions: MTCC 227, 48 h, read-out: DIZ
[16] = test system: Staphylococcus aureus; experiment: Antibacterial activity against Staphylococcus aureus MTCC 96 assessed as growth inhibition by broth dilution method; format: functional
[17] = test system: Bacillus subtilis; experiment: Antibacterial activity against Bacillus subtilis MTCC 441 assessed as growth inhibition by broth dilution method; format: functional; conditions: read-out: MIC
[18] = test system: Klebsiella pneumoniae; experiment: Antibacterial activity against Klebsiella pneumoniae assessed as growth inhibition by broth dilution method; format: functional
[19] = test system: MDA-MB-231; experiment: Cytotoxicity against Homo sapiens (human) MDA-MB-231 cells assessed as cell viability at 1 uM after 48 hr by MTT assay relative to control; format: functional; conditions: MDA-MB-231, 48 h, read-out: Activity
[20] = test system: Aspergillus niger; experiment: Antifungal activity against Aspergillus niger MTCC 1344 assessed as growth inhibition at 50 ug/ml after 48 hr by agar cup diffusion method; format: functional; conditions: MTCC 1344, 48 h, read-out: DIZ
[21] = test system: Saccharomyces cerevisiae; experiment: Antifungal activity against Saccharomyces cerevisiae MTCC 36 assessed as growth inhibition at 50 ug/ml after 48 hr by agar cup diffusion method; format: functional; conditions: MTCC 36, 48 h, read-out: DIZ
[22] = test system: Candida albicans; experiment: Antifungal activity against Candida albicans MTCC 227 assessed as growth inhibition at 50 ug/ml after 48 hr by agar cup diffusion method; format: functional; conditions: MTCC 227, 48 h, read-out: DIZ
[23] = test system: Diutina rugosa; experiment: Antifungal activity against Candida rugosa NCIM 3462 assessed as growth inhibition at 50 ug/ml after 48 hr by agar cup diffusion method; format: functional; conditions: NCIM 3462, 48 h, read-out: DIZ
[24] = test system: MCF7; experiment: Cytotoxicity against Homo sapiens (human) MCF7 cells assessed as cell viability at 5 uM after 48 hr by MTT assay relative to control; format: functional; conditions: MCF7, 48 h, read-out: Activity
[25] = test system: MDA-MB-231; experiment: Cytotoxicity against Homo sapiens (human) MDA-MB-231 cells assessed as cell viability at 5 uM after 48 hr by MTT assay relative to control; format: functional; conditions: MDA-MB-231, 48 h, read-out: Activity

SMILES | viability at 10 µM [1] [%] | zone of inhibition at 100 µg/mL [2] [mm] | MIC [3] [µg/mL] | zone of inhibition at 150 µg/mL [6] [mm] | MIC ([7]; read-out: MIC) [µg/mL] | zone of inhibition at 100 µg/mL [8] [mm] | zone of inhibition at 150 µg/mL [9] [mm] | MIC ([10]; read-out: MIC) [µg/mL] | zone of inhibition at 150 µg/mL [11] [mm] | zone of inhibition at 100 µg/mL [12] [mm] | viability at 10 µM [13] [%] | zone of inhibition at 100 µg/mL [14] [mm] | zone of inhibition at 150 µg/mL [15] [mm] | MIC ([16]; read-out: MIC) [µg/mL] | MIC [17] [µg/mL] | MIC ([18]; read-out: MIC) [µg/mL] | MIC [16] [µg/mL] | also measured
C/C(=N\NC(=O)c1snnc1C(F)(F)F)c1ccccn1 | 63.6 | 0 | 150 (≈ 476 µM) | 0 | 150 (≈ 476 µM) | 0 | 0 | 150 (≈ 476 µM) | 0 | 0 | 25.4 | 0 | 0 | 150 (≈ 476 µM) | 150 (≈ 476 µM) | 150 (≈ 476 µM) |  | IC50 [4]: 2.74 µg/mL (≈ 8.69 µM); IC50 [5]: 6.01 µg/mL (≈ 19.1 µM); viability at 1 µM [19]: 41.7%
O=C(N/N=C/c1ccccc1)c1snnc1C(F)(F)F | 102 | 0 | 150 (≈ 500 µM) | 0 | 150 (≈ 500 µM) | 0 | 6 | 150 (≈ 500 µM) | 0 | 10 | 102 | 0 | 12 |  | 150 (≈ 500 µM) |  | > 150 | MIC [18]: > 150 µg/mL
O=C(N/N=C/c1ccc(F)cc1)c1snnc1C(F)(F)F | 99.5 | 0 | 150 (≈ 471 µM) | 0 | 150 (≈ 471 µM) | 0 | 0 | 150 (≈ 471 µM) | 0 | 0 | 102 | 0 | 0 |  | 150 (≈ 471 µM) | 150 (≈ 471 µM) | > 150 | 
COc1ccc(/C=N/NC(=O)c2snnc2C(F)(F)F)cc1 | 101 | 0 | 150 (≈ 454 µM) | 0 | 150 (≈ 454 µM) | 0 | 0 | 150 (≈ 454 µM) | 0 | 0 | 87.3 | 0 | 0 |  | 150 (≈ 454 µM) | 150 (≈ 454 µM) | > 150 | 
O=C(N/N=C/c1ccco1)c1snnc1C(F)(F)F | 100 | 0 | 150 (≈ 517 µM) | 0 | 150 (≈ 517 µM) | 0 | 0 | 150 (≈ 517 µM) | 0 | 0 | 89.5 | 0 | 0 | 150 (≈ 517 µM) | 150 (≈ 517 µM) | 150 (≈ 517 µM) |  | 
O=C(N/N=C/c1cccs1)c1snnc1C(F)(F)F | 102 | 0 | 150 (≈ 490 µM) | 0 | 150 (≈ 490 µM) | 0 | 0 |  | 0 | 0 | 91.9 | 0 | 0 | 150 (≈ 490 µM) | 150 (≈ 490 µM) | 150 (≈ 490 µM) |  | MIC [10]: > 150 µg/mL
C/C(=N\NC(=O)c1snnc1C(F)(F)F)c1ccccc1 | 115 | 0 | 150 (≈ 477 µM) | 0 |  | 0 | 0 | 150 (≈ 477 µM) | 0 | 0 | 94.5 | 0 | 0 |  | 150 (≈ 477 µM) | 150 (≈ 477 µM) | > 150 | MIC [7]: > 150 µg/mL
C[C@@H]1[C@H](O)[C@@H](C)/C=C/C=C/C=C/C=C/C=C/C=C/C=C/[C@H](O[C@@H]2O[C@H](C)[C@@H](O)[C@H](N)[C@@H]2O)C[C@@H]2O[C@](O)(C[C@@H](O)C[C@@H](O)[C@H](O)CC[C@@H](O)C[C@@H](O)CC(=O)O[C@H]1C)C[C@H](O)[C@H]2C(=O)O [AMPHOTERICIN B] |  |  |  |  |  |  |  |  |  |  |  |  |  |  |  |  |  | zone of inhibition at 50 µg/mL [20]: 25 mm; zone of inhibition at 50 µg/mL [21]: 22 mm; zone of inhibition at 50 µg/mL [22]: 23.5 mm; zone of inhibition at 50 µg/mL [23]: 21 mm
COc1cccc2c1C(=O)c1c(O)c3c(c(O)c1C2=O)C[C@@](O)(C(=O)CO)C[C@@H]3O[C@H]1C[C@H](N)[C@H](O)[C@H](C)O1 [DOXORUBICIN] |  |  |  |  |  |  |  |  |  |  |  |  |  |  |  |  |  | viability at 5 µM [24]: 43.1%; viability at 5 µM [25]: 22.9%
